T1: IL-8 type β receptor (IL-8Rβ) (Homo sapiens, UniProt P25025)
T1 construct: purchased BioSignal, Montreal, Canada; host or cells: Sf9 cells
T1 sequence (P25025 1-360): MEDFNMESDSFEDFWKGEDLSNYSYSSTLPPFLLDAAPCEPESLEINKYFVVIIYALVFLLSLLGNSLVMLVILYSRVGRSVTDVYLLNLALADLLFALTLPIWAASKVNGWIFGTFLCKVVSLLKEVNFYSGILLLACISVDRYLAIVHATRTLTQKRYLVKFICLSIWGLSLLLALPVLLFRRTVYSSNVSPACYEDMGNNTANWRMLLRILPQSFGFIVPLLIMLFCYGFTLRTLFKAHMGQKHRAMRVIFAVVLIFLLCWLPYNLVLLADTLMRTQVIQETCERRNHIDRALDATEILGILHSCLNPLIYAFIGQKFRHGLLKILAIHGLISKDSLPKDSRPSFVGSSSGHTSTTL

B1: MIP-1β: microphage inflammatory protein; standard reference agent used in CCR5 assay (protein, UniProt P13236 24-92, looked up)
C-C motif chemokine 4: APMGSDPPTACCFSYTARKLPRNFVVDYYETSSLCSQPAVVFQTKRSKQVCADPSESWVQEYVYDLELN
modifications: ends and bridges not checked

What was measured:
[1] = target: T1, IL-8 type β receptor (IL-8Rβ); experiment: [125I] IL-8 binding assay (WGA-SPA beads, IL-8Rβ membranes); conditions: 20 uM compound; [125I] IL-8, IL-8Rβ membranes
Method: IL-8 (human recombinant) was obtained from NEN Life Science Products, Inc., Boston, Mass., with specific activity of 2200 Ci/mmol. Recombinant human IL-8 was obtained from R&D Systems, Minneapolis, Minn. IL-8 type β receptor membranes were prepared from […] co-expressed with Gαi3β1γ2 proteins by BioSignal™, Montreal, Canada. Wheat Germ Agglutinin Scintillation Proximity Assay Beads were obtained from Amersham Pharmacia Biotech, Piscataway, N.J. All assays were performed in a 96-well, solvent resistant, white PicoPlate obtained from Packard Instruments. […] The assay was initiated by the addition of WGA-SPA beads in 25 mM Hepes (pH 7.4) containing 2 mM CaCl2 and 1 mM MgCl2. After 4–6 hours of gentle agitation at room temperature, the plate was counted on the Packard TopCount liquid scintillation counter.

[2] = system: polymorphonuclear neutrophils (PMNs); experiment: GRO-α driven chemotaxis assay with PMNs (ChemoTx plate); assay type: cell-based; conditions: 20 μM compound; 50 nM GRO-α, human PMNs
Method: Peripheral blood from healthy human volunteers was collected into heparin, diluted in an equal volume of PBS, layered over Ficoll-Paque Plus (Pharmacia Biotech, Uppsala, Sweden), and spun at 400×g for 30 min. The PMN rich fraction was removed and residual erythrocytes were lysed with hypotonic saline. The polymorphonuclear neutrophils (PMNs) were washed once with assay buffer (Dulbecco's PBS containing divalent cations and 0.1% endotoxin-free BSA), and resuspended at 1E7 cells/mL in the same buffer. PMNs were loaded with 5 μM calcein AM (Molecular Probes, Eugene, Oreg.), washed twice and resuspended in assay buffer.
Growth Regulatory Oncogene a (GRO-α) driven chemotaxis assays were performed according to the following protocol. […] Test compounds were dissolved in DMSO (100%) at 20 mM and diluted in assay buffer to the desired concentrations; final DMSO concentration was 0.2%. Neutrophil migration proceeded for 40 min at 37° C. in a humidified incubator with 5% CO2. After removing nonmigrated cells from the top of the plate, migrated cells were quantified by reading fluorescence on a Wallac Victor.
The ratio of the positive to negative controls represents the chemotactic index of the cells. The results from this assay are reported in Tables 3–5, under the column headings IL-8 and GRO-α, and under the sub-column headings ChTx (for chemotaxis).

[3] = target: T2, human chemokine CCR5 receptor (Homo sapiens, UniProt P51681); conditions: CCR5 reference data; cited from earlier work
T2 construct: host or cells: CHO-K1-p242-CCR5 cells
T2 sequence (P51681 whole entry): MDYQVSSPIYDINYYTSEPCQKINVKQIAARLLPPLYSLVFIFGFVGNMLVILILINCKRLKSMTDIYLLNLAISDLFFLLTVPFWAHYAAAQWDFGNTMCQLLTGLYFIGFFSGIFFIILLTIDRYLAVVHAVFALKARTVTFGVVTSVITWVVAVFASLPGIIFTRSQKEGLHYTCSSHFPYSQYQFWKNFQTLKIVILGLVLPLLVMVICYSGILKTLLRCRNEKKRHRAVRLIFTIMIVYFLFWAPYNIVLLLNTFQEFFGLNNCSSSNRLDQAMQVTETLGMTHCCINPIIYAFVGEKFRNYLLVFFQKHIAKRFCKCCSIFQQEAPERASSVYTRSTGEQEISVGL

Molecule	IL-8 Binding @ 20 uM, % [1]	GRO-α ChTx @ 20 μM, % [2]	IC50 [3]	Ki [3]	nH [3]
O=C(NC(c1ccccc1)c1ccccc1)c1ccc(Cl)[n+]([O-])c1	* (“*” for % values of less than or equal to 40)	** (“**” for % values greater than 40)	–	–	–
O=C(Nc1ccccc1F)c1ccc(Cl)[n+]([O-])c1	* (“*” for % values of less than or equal to 40)	** (“**” for % values greater than 40)	–	–	–
O=C(Nc1cc(C(F)(F)F)cc(C(F)(F)F)c1)c1ccc(Cl)[n+]([O-])c1	* (“*” for % values of less than or equal to 40)	* (“*” for % values of less than or equal to 40)	–	–	–
O=C(Nc1cccc(OC(F)(F)F)c1)c1ccc(Cl)[n+]([O-])c1	* (“*” for % values of less than or equal to 40)	* (“*” for % values of less than or equal to 40)	–	–	–
Cc1cc(F)ccc1NC(=O)c1ccc(Cl)[n+]([O-])c1	* (“*” for % values of less than or equal to 40)	** (“**” for % values greater than 40)	–	–	–
O=C(Nc1cccc(F)c1)c1ccc(Cl)[n+]([O-])c1	* (“*” for % values of less than or equal to 40)	** (“**” for % values greater than 40)	–	–	–
O=C(Nc1ccc(I)cc1)c1ccc(Cl)[n+]([O-])c1	* (“*” for % values of less than or equal to 40)	** (“**” for % values greater than 40)	–	–	–
CC(C)(C)c1ccc(NC(=O)c2ccc(Cl)[n+]([O-])c2)cc1	* (“*” for % values of less than or equal to 40)	** (“**” for % values greater than 40)	–	–	–
CCOc1cccc(NC(=O)c2ccc(Cl)[n+]([O-])c2)c1	* (“*” for % values of less than or equal to 40)	C*	–	–	–
NC(=O)c1cccc(NC(=O)c2ccc(Cl)[n+]([O-])c2)c1	* (“*” for % values of less than or equal to 40)	* (“*” for % values of less than or equal to 40)	–	–	–
O=C(NCc1ccccc1)c1ccc(Cl)[n+]([O-])c1	* (“*” for % values of less than or equal to 40)	* (“*” for % values of less than or equal to 40)	–	–	–
O=C(NCc1ccc(F)cc1)c1ccc(Cl)[n+]([O-])c1	* (“*” for % values of less than or equal to 40)	* (“*” for % values of less than or equal to 40)	–	–	–
O=C(NC1CCCC1)c1ccc(Cl)[n+]([O-])c1	* (“*” for % values of less than or equal to 40)	* (“*” for % values of less than or equal to 40)	–	–	–
O=C(NCc1ccco1)c1ccc(Cl)[n+]([O-])c1	* (“*” for % values of less than or equal to 40)	* (“*” for % values of less than or equal to 40)	–	–	–
O=C(Nc1ccc(F)cc1)c1ccc(Cl)[n+]([O-])c1 [Cl—, 6-Chloro-N-(4-fluoro-phenyl)-1-oxy-nicotinamide]	**(1) (“**” for % values greater than 40)	** (“**” for % values greater than 40)	–	–	–
CS(=O)(=O)c1ccc(C(=O)Nc2ccc(F)cc2)c[n+]1[O-] [drawing 44]	** (“**” for % values greater than 40)	** (“**” for % values greater than 40)	–	–	–
O=C(Nc1ccc(F)cc1)c1ccc(S(=O)(=O)c2ccccc2)[n+]([O-])c1 [drawing 47]	** (“**” for % values greater than 40)	** (“**” for % values greater than 40)	–	–	–
CCS(=O)(=O)c1ccc(C(=O)Nc2ccc(F)cc2)c[n+]1[O-] [drawing 49]	** (“**” for % values greater than 40)	** (“**” for % values greater than 40)	–	–	–
CCCS(=O)(=O)c1ccc(C(=O)Nc2ccc(F)cc2)c[n+]1[O-] [drawing 51]	** (“**” for % values greater than 40)	** (“**” for % values greater than 40)	–	–	–
O=C(Nc1ccc(F)cc1)c1ccc(S(=O)(=O)Cc2ccccc2)[n+]([O-])c1 [drawing 52]	** (“**” for % values greater than 40)	** (“**” for % values greater than 40)	–	–	–
O=C(Nc1ccc(F)cc1)c1ccc(S(=O)(=O)C2CCCC2)[n+]([O-])c1 [drawing 53]	** (“**” for % values greater than 40)	** (“**” for % values greater than 40)	–	–	–
O=C(Nc1ccc(F)c(F)c1)c1ccc(Cl)[n+]([O-])c1 [drawing 70]	* (“*” for % values of less than or equal to 40)	** (“**” for % values greater than 40)	–	–	–
MIP-1α: microphage inflammatory protein	–	–	0.039 nM	0.03 nM	0.8
RANTES: regulated on activation of normal T-cell expressed and secreted	–	–	0.012 nM	0.0093 nM	0.9
B1	–	–	0.074 nM	0.057 nM	0.9
